{
  "source": "patent US20240190994A1",
  "about": "“FUSION PROTEIN BETWEEN ANTIGEN-BINDING MOLECULE AND STREPTAVIDIN VARIANT” (The University of Tokyo, priority 2021, published 2024)",
  "key": {"[1]": {"tested_on": "KPL-4 xenograft (HER2-positive breast cancer)", "assay": "in vivo breast cancer tumor model experiment, tumor volume", "parameters": "species or system BALB/cSlc-nu/nu nude mice", "method": "The KPL-4 cell line was maintained in DMEM (low glucose) (FUJIFILM Wako Pure Chemical Corporation, Osaka, Japan) supplemented with 10% FBS, 100 U/mL penicillin, and 100 μg/mL streptomycin (#15140122, Thermo Fisher Scientific, Waltham, MA, USA) (Kurebayashi J, Otsuki T, Tang CK, et al. Isolation and characterization of a new human breast cancer cell line, KPL-4, expressing the Erb B family receptors and interleukin-6. Br J Cancer. 1999; 79: 707-717. doi:10.1038/sj.bjc.6690114). The KPL-4 cells (7,500,000) were subcutaneously transplanted into the thigh of BALB/cSlc-nu/nu nude mice (Sankyo Lab Service, Inc., Tokyo, Japan). Proliferation of the subcutaneous tumor was monitored by measuring a tumor volume (0.5×length×width^2) using Vernier calipers, and the body weight of the animals was then monitored as an indicator of treatment-related toxicity.\nIn this study, in order to evaluate tumor recurrence, the observation period was set to be […] after the initial treatment. […] Finally, the xenograft mouse models were sacrificed at 97 days after the treatment, namely, at 19 days or more after the second treatment.\nPreparation of ZHER2:342-Cupid-His and Psyche-Ax-SiPC was as previously reported (Yamatsugu K, Katoh H, Yamashita T, et al., Antibody mimetic drug conjugate manufactured by high-yield Protein Expr Purif. 2022; 192: 106043. doi:10.1016/j.pep.2021 106043). Briefly speaking, Psyche-Ax-SiPC solubilized in dimethyl sulfoxide at a concentration of 5 mM was preserved as a stock solution at −80° C. In order to prepare a complex, ZHER2:342-Cupid-His and Psyche-Ax-SiPC were mixed with each other at a molar ratio of 1:2 in a dark place on ice for 10 minutes. A concentrate of ZHER2:342-Cupid-His-Ax-SiPC was diluted using a phosphate-buffered saline.\nTwenty hours after the injection, the mice in the ZHER2:342-Cupid-His-Ax-SiPC group were irradiated with a 690-nm light emitting diode light (Yamato Scientific Co., Ltd., Tokyo, Japan) at 230 J/cm^−2. Forty-eight hours after the initial light irradiation, the tumor was irradiated again in the same manner as that described above."}, "[2]": {"tested_on": "KPL-4 xenograft tumor site, skin and major organs", "assay": "pathological analysis (H & E histology) of xenograft mouse models", "format": "in vivo, BALB/cSlc-nu/nu nude mice", "details": "97th day", "source_text": "Skin samples from xenograft tumor sites, and samples from other important organs including lung, heart, kidney, liver and gastrointestinal tract, were obtained from the mice. […] Stained slides were dehydrated again by being immersed in ethanol and then being immersed in xylene. […] The H & E-stained slides were histologically examined using the OLYMPUS cellSens Standard system (OLYMPUS, Tokyo, Japan)."}},
  "data": [
    {"substance": "trastuzumab emtansine [Kadcyla]", "values": [
      {"measurement": "tumor size after the first treatment", "setting": "[1]; Kadcyla 300 μg/mouse, ZHER2:342-Cupid-His-Ax-SiPC 150 μg/mouse with 690-nm light, n=10, FIG. 11", "result": "a reduction in the tumor size was observed"},
      {"measurement": "cases with tumor volume decreased to 0 mm^3", "setting": "[1]; at 21 days after the injection, n=10", "result": 1, "unit": "case"},
      {"measurement": "course of tumor volume after the treatment", "setting": "[1]; single administration, FIGS. 11B-D", "result": "gradually decreased"},
      {"measurement": "tumor size in the long term after single treatment", "setting": "[1]; up to 2 months after the injection", "result": "steady decrease in the tumor size"},
      {"measurement": "pathological response", "setting": "[2]", "result": "pathological complete remission was achieved"},
      {"measurement": "metastatic tumors in lymph nodes or distant organs", "setting": "[2]; FIG. 13 and FIG. 14", "result": "No metastatic tumors were observed"},
      {"measurement": "residual tumor cells in the subcutaneous region around the xenograft tumor site", "setting": "[2]; n=10, FIG. 13 and FIG. 14", "result": "no residual tumor cells were observed"}
    ]}
  ]
}
